Results published in patent publication US8669361B2, “Pyrazol-4-yl-heterocyclyl-carboxamide compounds and methods of use” (Genentech, Inc., priority 2010, dated 2014).
Where two headings read alike, the source gives them in different places.

Assays:
PIM1 = PIM1 (Homo sapiens (Human), UniProt P11309); assay: Pim kinase binding activity, Caliper LC3000 microfluidic peptide phosphorylation assay (Example 901); assay type: biochemical; details: 20 pM PIM1, 1 μM FAM-peptide, 10 μM ATP, 90 minutes at room temperature; read-out: PIM1 LC3K (KI)
Sequence of PIM1 (P11309 whole entry, the tested form may be a part): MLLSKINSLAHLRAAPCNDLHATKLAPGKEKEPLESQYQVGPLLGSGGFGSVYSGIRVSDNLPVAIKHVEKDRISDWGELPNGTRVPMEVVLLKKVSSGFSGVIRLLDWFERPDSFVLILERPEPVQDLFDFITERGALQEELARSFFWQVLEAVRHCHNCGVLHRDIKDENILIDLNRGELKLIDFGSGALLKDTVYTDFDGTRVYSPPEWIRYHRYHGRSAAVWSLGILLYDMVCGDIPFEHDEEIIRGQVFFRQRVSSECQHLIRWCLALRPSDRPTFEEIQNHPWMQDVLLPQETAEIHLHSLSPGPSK
Method: (§1) PIM-1, -2, and -3 enzymes were generated as fusion proteins expressed in bacteria and purified by IMAC column chromatography (Sun, X., Chiu, J. F., and He, Q. Y. (2005) Expert Rev. Proteomics, 2:649-657). A fluorescent-labeled Pim-specific peptide substrate, was custom synthesized by American Peptide Company (Sunnyvale, Calif.). Reaction Buffer contained 10 mM HEPES, pH 7.2, 10 mM MgCl2, 0.01% Tween 20, 2 mM DTT. Termination Buffer contained 190 mM HEPES, pH 7.2, 0.015% Brij-35, 0.2% Coating Reagent 3 (Caliper Life Sciences, Hopkinton, Mass.), 20 mM EDTA. Separation Buffer contained 100 mM HEPES, pH 7.2, 0.015% Brij-35, 0.1% Coating Reagent 3, 1:200 Coating Reagent 8 (Caliper Life Sciences, Hopkinton, Mass.), 10 mM EDTA and 5% DMSO.
(§2) PIM reactions were carried out in a final volume of 10 μL per well in a 384-well plate. A standard enzymatic reaction, initiated by the addition of 5 μL 2×ATP and test compound to 5 μL of 2× enzyme and FAM-peptide, contained 20 pM PIM1, 50 pM PIM2, or 55 pM PIM3, 1 μM FAM-peptide, and 10 μM ATP, in Reaction Buffer. After 90 minutes of incubation at room temperature, the phosphorylation reaction was stopped by the addition of 10 μL Termination Buffer. The product and substrate in each independent reaction were separated on a 12-sipper microfluidic chip (Caliper Life Sciences, Hopkinton, Mass.) run on a Caliper LC3000® (Caliper Life Sciences, Hopkinton, Mass.). The separation of product and substrate was optimized by choosing voltages and pressure using Caliper's Optimizer software (Hopkinton, Mass.). The separation conditions used a downstream voltage of −500V, an upstream voltage of −2150V, and a screening pressure of −1.2 psi. The product and substrate fluorophore were excited at 488 nm and detected at 530 nm. Substrate conversion was calculated from the electropherogram using HTS Well Analyzer software (Caliper Life Sciences, Hopkinton, Mass.). Ki values for the test compound were calculated.

PIM3 = PIM3 (Homo sapiens (Human), UniProt Q86V86); assay: as above; assay type: biochemical; details: 55 pM PIM3, 1 μM FAM-peptide, 10 μM ATP, 90 minutes at room temperature; read-out: PIM3 LC3K (KI)
Method: as §1, §2

PIM2 = PIM2 (Homo sapiens (Human), UniProt Q9P1W9); assay: as above; assay type: biochemical; details: 50 pM PIM2, 1 μM FAM-peptide, 10 μM ATP, 90 minutes at room temperature; read-out: PIM2 LC3K (KI)
Sequence of PIM2 (Q9P1W9 whole entry, the tested form may be a part): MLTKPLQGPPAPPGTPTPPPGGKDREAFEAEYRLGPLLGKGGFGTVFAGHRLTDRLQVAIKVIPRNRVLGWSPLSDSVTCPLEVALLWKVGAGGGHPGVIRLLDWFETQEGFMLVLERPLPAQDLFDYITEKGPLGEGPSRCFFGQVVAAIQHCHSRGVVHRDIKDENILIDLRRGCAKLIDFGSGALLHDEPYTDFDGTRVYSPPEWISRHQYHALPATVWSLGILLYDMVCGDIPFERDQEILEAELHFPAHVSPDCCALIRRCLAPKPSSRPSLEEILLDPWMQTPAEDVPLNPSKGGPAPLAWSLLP
Method: as §1, with “A” for “PIM-1, -2, and -3 enzymes were generated as fusion proteins expressed in bacteria and purified by IMAC column chromatography (Sun, X., Chiu, J. F., and He, Q. Y. (2005) Expert Rev. Proteomics, 2:649-657). A”
as §2, with “A standard enzymatic reaction, initiated by the addition of 5 μL 2×ATP and test compound to 5 μL of 2× enzyme and FAM-peptide, contained 20 pM PIM1, 50 pM PIM2, or 55 pM PIM3, 1 μM FAM-peptide, and 10 μM ATP, in Reaction Buffer.” left out, “The product and substrate fluorophore were excited at 488 nm and detected at 530 nm.” left out

BaF3 parental cells = assay: In vitro cell proliferation potency assay, Cell Titer Glo (Example 902); assay type: cell-based, murine; details: Mus musculus
Method: (§3) BaF3 parental line was obtained from the DSMZ repository. BaF3 lines transfected with PIM 1 or PIM2 were generated. Mouse IL-3 was purchased from R&D Systems. G418 was purchased from Clontech. Media for BaF3 parental line contained RPMI, 10% FBS, 2 mM L-Glutamine, 2 ng/mL mIL-3. Media for BaF3 PIM1 & 2 lines contained RPMI, 10% FBS, 2 mM L-Glutamine, […]. Media for MM1.S (multiple myeloma cells) line contained RPMI, 10% FBS, 2 mM L-Glutamine.
(§4) BaF3, a murine interleukin-3 dependent pro-B cell line, parental cells, BaF3 PIM1 cells, BaF3 PIM2 cells, and MM1.S (multiple myeloma) cells were seeded at 2 k/well, 5 k/well, 5 k/well, and 10 k/well respectively, in a 384-well plate, at 45 μL/well. Test compound was added at 5 μL/well. BaF3 cells (parental and transfected) were incubated overnight, while MM1.S cells were incubated for 72 hours at 37° C., 5% CO2. Cell Titer Glo Reagent (Promega) was added at 50 μL/well, the plates were incubated for 30 minutes, and their luminescence read on an HT Analyst. IC50/EC50 values for the test compound were calculated.

BaF3 PIM1 cells = assay: as above; assay type: cell-based, murine; details: Mus musculus
Method: as §3, §4

Structure (SMILES) | Ki (PIM1) [nM] | Ki (PIM3) [nM] | Ki (PIM2) [nM] | IC50 (BaF3 PIM1 cells; BaF3 line transfected with PIM1, incubated overnight, read-out: Prolif BaF3 PIM1 (IC50)) [nM] | IC50 (BaF3 parental cells; BaF3, read-out: Prolif BaF3 IL3 (IC50)) [nM] | IC50 (BaF3 PIM1 cells; BaF3, read-out: Prolif BaF3 PIM1 (IC50)) [nM] | IC50 (BaF3 parental cells; BaF3 parental line, medium with 2 ng/mL mIL-3, incubated overnight, read-out: Prolif BaF3 IL3 (IC50)) [nM]
Cn1cc(NC(=O)c2nc(-c3c(F)cccc3F)sc2N)cn1 [Example 102, 5-amino-2-(2,6-difluorophenyl)-N-(1-methyl-1H-pyrazol-4-yl)thiazole-4-carboxamide] | 16 | 8.8 | 110 | – | – | – | –
Cn1ncc(NC(=O)c2nc(-c3c(F)cccc3F)sc2N)c1NCC1CCNCC1 [Example 105, 5-amino-2-(2,6-difluorophenyl)-N-(1-methyl-5-(piperidin-4-ylmethylamino)-1H-pyrazol-4-yl)thiazole-4-carboxamide] | 4.54 | 5.77 | 148 | – | – | – | –
Cn1ncc(NC(=O)c2nc(-c3ccccc3F)ccc2N)c1OC1CCNCC1 [Example 116, 3-amino-6-(2-fluorophenyl)-N-(1-methyl-5-(piperidin-4-yloxy)-1H-pyrazol-4-yl)picolinamide] | 4.36 | 4.97 | 26.2 | – | – | – | –
Cn1ncc(NC(=O)c2nc(-c3ccccc3F)ccc2N)c1OCC1CCNCC1 [Example 117, 3-amino-6-(2-fluorophenyl)-N-(1-methyl-5-(piperidin-4-ylmethoxy)-1H-pyrazol-4-yl)picolinamide] | – | – | – | – | > 25000 | 4900 | –
Cn1ncc(NC(=O)c2nc(Cl)cnc2N)c1N1CCC[C@H](N)C1 [Example 123, (S)-3-amino-N-(5-(3-aminopiperidin-1-yl)-1-methyl-1H-pyrazol-4-yl)-6-chloropyrazine-2-carboxamide] | 137 | 215 | 587 | – | – | – | –
Cn1ncc(NC(=O)c2nc(-c3c(F)cccc3F)sc2N)c1N1CCC(CN)CC1 [Example 133, 5-amino-N-(5-(4-(aminomethyl)piperidin-1-yl)-1-methyl-1H-pyrazol-4-yl)-2-(2,6-difluorophenyl)thiazole-4-carboxamide] | – | – | – | 258 | – | – | 25000
Cn1ncc(NC(=O)c2cncc(-c3ccccc3F)n2)c1N1CCC[C@H](N)CC1 [Example 220, (S)—N-(5-(4-aminoazepan-1-yl)-1-methyl-1H-pyrazol-4-yl)-6-(2-fluorophenyl)pyrazine-2-carboxamide] | 22 | 34.2 | 581 | – | – | – | –
CN1CCC(c2c(NC(=O)c3nc(-c4c(F)cccc4F)sc3N)cnn2C)CC1 [Example 231, 5-amino-2-(2,6-difluorophenyl)-N-(1-methyl-5-(1-methylpiperidin-4-yl)-1H-pyrazol-4-yl)thiazole-4-carboxamide] | 7.65 | 5.26 | 201 | – | – | – | –
Cn1ncc(NC(=O)c2nc(-c3c(F)cccc3F)sc2N)c1C1CCNCC1 [Example 263, 5-amino-2-(2,6-difluorophenyl)-N-(1-methyl-5-(piperidin-4-yl)-1H-pyrazol-4-yl)thiazole-4-carboxamide] | 10.4 | 6.12 | 185 | – | – | – | –
Nc1sc(-c2c(F)cccc2F)nc1C(=O)Nc1cnn(CCF)c1 [Example 353, 5-amino-2-(2,6-difluorophenyl)-N-(1-(2-fluoroethyl)-1H-pyrazol-4-yl)thiazole-4-carboxamide] | 11.9 | 19 | 38 | – | – | – | –
CCn1ncc(NC(=O)c2nc(-c3ccccc3F)sc2N)c1N1CCC[C@@H](N)CC1 [Example 364, (R)-5-Amino-N-(5-(4-aminoazepan-1-yl)-1-ethyl-1H-pyrazol-4-yl)-2-(2-fluorophenyl)thiazole-4-carboxamide] | 20 | 24 | 124 | – | – | – | –

Second part, led by results:

Ki (PIM1) [nM] | Ki (PIM3) [nM] | Ki (PIM2) [nM] | IC50 (BaF3 PIM1 cells; BaF3 line transfected with PIM1, incubated overnight, read-out: Prolif BaF3 PIM1 (IC50)) [nM] | Structure (SMILES) | IC50 (BaF3 parental cells; BaF3, read-out: Prolif BaF3 IL3 (IC50)) [nM] | IC50 (BaF3 PIM1 cells; BaF3, read-out: Prolif BaF3 PIM1 (IC50)) [nM] | IC50 (BaF3 parental cells; BaF3 parental line, medium with 2 ng/mL mIL-3, incubated overnight, read-out: Prolif BaF3 IL3 (IC50)) [nM]
1.22 | 0.575 | 20.1 | – | Cn1ncc(NC(=O)c2nc(-c3ccccc3F)sc2N)c1N1CCC[C@H](N)C1 [Example 107, (S)-5-amino-N-(5-(3-aminopiperidin-1-yl)-1-methyl-1H-pyrazol-4-yl)-2-(2-fluorophenyl)thiazole-4-carboxamide] | – | – | –
0.762 | 2.63 | 41.1 | – | Cn1ncc(NC(=O)c2nc(-c3ccccc3)ccc2N)c1N1CCC(N)CC1 [Example 109, 3-amino-N-(5-(4-aminopiperidin-1-yl)-1-methyl-1H-pyrazol-4-yl)-6-phenylpicolinamide] | – | – | –
0.246 | 0.34 | 2.49 | – | Cn1ncc(NC(=O)c2nc(-c3ccccc3F)ccc2N)c1N1CCC[C@@H](N)C1 [Example 112, (R)-3-amino-N-(5-(3-aminopiperidin-1-yl)-1-methyl-1H-pyrazol-4-yl)-6-(2-fluorophenyl)picolinamide] | – | – | –
– | 3.79 | 28.5 | – | Cn1ncc(NC(=O)c2nc(-c3ccccc3F)ccc2N)c1N1CC[C@@H](N)C1 [Example 124, (R)-3-amino-N-(5-(3-aminopyrrolidin-1-yl)-1-methyl-1H-pyrazol-4-yl)-6-(2-fluorophenyl)picolinamide] | – | – | –
0.368 | 0.245 | 3.13 | – | Cn1ncc(NC(=O)c2nc(-c3ccccc3F)ccc2N)c1N1CCC[C@H](N)CC1 [Example 142, (S)-3-amino-N-(5-(4-aminoazepan-1-yl)-1-methyl-1H-pyrazol-4-yl)-6-(2-fluorophenyl)picolinamide] | – | – | –
0.897 | 2.48 | 17.3 | – | Cn1ncc(NC(=O)c2ccc(F)c(-c3c(F)cccc3F)n2)c1N1CCC[C@@H](N)CC1 [Example 238, (R)—N-(5-(4-aminoazepan-1-yl)-1-methyl-1H-pyrazol-4-yl)-6-(2,6-difluorophenyl)-5-fluoropicolinamide] | – | – | –
0.096 | 0.176 | 4.37 | – | CN[C@H]1CCCN(c2c(NC(=O)c3nc(-c4c(F)cccc4F)sc3N)cnn2C)CC1 [Example 328, (S)-5-amino-2-(2,6-difluorophenyl)-N-(1-methyl-5-(4-(methylamino)azepan-1-yl)-1H-pyrazol-4-yl)thiazole-4-carboxamide] | – | – | –
0.462 | 0.735 | 12.5 | – | Cn1ncc(NC(=O)c2nc(-c3c(F)cccc3F)sc2N)c1C1CCC(N)CC1 (stereo not drawn) [Example 369, 5-amino-N-(5-(4-aminocyclohexyl)-1-methyl-1H-pyrazol-4-yl)-2-(2,6-difluorophenyl)thiazole-4-carboxamide] | – | – | –
